{"source": "patent US20250282759A1", "about": "“POLYMORPHIC AND SALT FORMS OF THE AUTOTAXIN INHIBITOR CUDETAXESTAT” (Sabre Therapeutics LLC, priority 2022, published 2025)", "format_in_all_cases": "physicochemical", "key": {"[1]": {"assay": "Competitive slurry of Form A and Form C of Compound 1", "conditions": "2 days", "excerpt": "The obtained solids were isolated for XRPD analysis."}, "[2]": {"assay": "Dynamic Vapor Sorption (DVS)", "conditions": "for moisture uptake / hygroscopicity: 25° C./80% RH; for hygroscopicity: DVS", "experimental": "Dynamic Vapor Sorption (DVS) analysis was conducted using a SMS (Surface Measurement Systems) DVS Intrinsic analyzer using the parameters listed below. [table]"}, "[3]": {"assay": "Physical and chemical stability under 25° C./60% RH and 40° C./75% RH", "conditions": "for degradation and/or form change: 25° C./60% RH and 40° C./75% RH, one week; for Stability results (Open for 1 week) Form change: XRPD; for Initial Purity (area %): before storage", "experimental": "Stability measurements were analyzed with a Waters H-Class ultra-performance liquid chromatography (UPLC) system using the conditions and parameters listed below.\nApproximately 20 mg of a solid sample of each crystalline form was added to a HPLC vial (open dish) and then stored under 25° C./60% RH or 40° C./75% RH. After one week, the samples were removed from the test conditions and analyzed by HPLC and XRPD to assess chemical and physical stability, respectively."}, "[4]": {"assay": "Form E exposed to ambient condition", "conditions": "5 hours"}}, "note": "“Also recorded” adds a separate entry of the source."}
{"smiles": "CCCn1cc(-n2c(Cl)c(Sc3cccc(C(=O)O)c3F)c3ccc(Cl)c(F)c32)cn1", "note": "[Form A + Form C]", "values": [{"measurement": "XRPD Result", "setting": "[1]; Acetone, water activity 0.0, room temperature", "result": "Form C"}, {"measurement": "XRPD Result", "setting": "[1]; Acetone/H2O (605:395), water activity 0.8, room temperature", "result": "Form A"}, {"measurement": "XRPD Result", "setting": "[1]; Acetone/H2O (858:142), water activity 0.6, room temperature", "result": "Form A"}, {"measurement": "XRPD Result", "setting": "[1]; Acetone/H2O (950:50), water activity 0.4, room temperature", "result": "Form C"}, {"measurement": "XRPD Result", "setting": "[1]; Acetone/H2O (986:14), water activity 0.2, room temperature", "result": "Form C"}, {"measurement": "XRPD Result", "setting": "[1]; H2O, water activity 1.0, room temperature", "result": "Form A"}]}
{"smiles": "CCCn1cc(-n2c(Cl)c(Sc3cccc(C(=O)O)c3F)c3ccc(Cl)c(F)c32)cn1", "note": "[Form 1 of Compound 1-A]", "values": [{"measurement": "moisture uptake", "setting": "[2]", "result": 0.32, "unit": "%"}, {"measurement": "hygroscopicity", "setting": "[2]", "result": "slightly hygroscopic"}, {"measurement": "hygroscopicity", "setting": "[2]; listed as crystalline Form 1", "result": "slightly hygroscopic; also recorded: non-hygroscopic"}, {"measurement": "degradation and/or form change", "setting": "[3]", "result": "no significant degradation and/or form change"}, {"measurement": "Stability results (Open for 1 week) Appearance", "setting": "[3]; 25° C./60% RH", "result": "No"}, {"measurement": "Stability results (Open for 1 week) Purity (area %)", "setting": "[3]; 25° C./60% RH", "result": 99.73, "unit": "area %"}, {"measurement": "Stability results (Open for 1 week) Form change", "setting": "[3]; 25° C./60% RH", "result": "No"}, {"measurement": "Stability results (Open for 1 week) Appearance", "setting": "[3]; 40° C./75% RH", "result": "No"}, {"measurement": "Stability results (Open for 1 week) Purity (area %)", "setting": "[3]; 40° C./75% RH", "result": 99.73, "unit": "area %"}, {"measurement": "Stability results (Open for 1 week) Form change", "setting": "[3]; 40° C./75% RH", "result": "No"}, {"measurement": "Initial Purity (area %)", "setting": "[3]", "result": 99.79, "unit": "area %"}]}
{"smiles": "CCCn1cc(-n2c(Cl)c(Sc3cccc(C(=O)O)c3F)c3ccc(Cl)c(F)c32)cn1", "note": "[Form E]", "values": [{"measurement": "form transfer on exposure to ambient condition", "setting": "[4]", "result": "transferred back to Form A; also recorded: Freeform Type E transferred to freeform Type A after"}]}
{"smiles": "CCCn1cc(-n2c(Cl)c(Sc3cccc(C(=O)O)c3F)c3ccc(Cl)c(F)c32)cn1", "note": "[Form 3 of Compound 1-B]", "values": [{"measurement": "moisture uptake", "setting": "[2]", "result": 0.1, "unit": "%"}, {"measurement": "hygroscopicity", "setting": "[2]", "result": "non-hygroscopic"}, {"measurement": "form change after DVS test", "setting": "[2]; after DVS test", "result": "No form change"}, {"measurement": "degradation and/or form change", "setting": "[3]", "result": "no significant degradation and/or form change"}, {"measurement": "Stability results (Open for 1 week) Appearance", "setting": "[3]; 25° C./60% RH", "result": "No"}, {"measurement": "Stability results (Open for 1 week) Purity (area %)", "setting": "[3]; 25° C./60% RH", "result": 99.72, "unit": "area %"}, {"measurement": "Stability results (Open for 1 week) Form change", "setting": "[3]; 25° C./60% RH", "result": "No"}, {"measurement": "Stability results (Open for 1 week) Appearance", "setting": "[3]; 40° C./75% RH", "result": "No"}, {"measurement": "Stability results (Open for 1 week) Purity (area %)", "setting": "[3]; 40° C./75% RH", "result": 99.73, "unit": "area %"}, {"measurement": "Stability results (Open for 1 week) Form change", "setting": "[3]; 40° C./75% RH", "result": "No"}, {"measurement": "Initial Purity (area %)", "setting": "[3]", "result": 99.77, "unit": "area %"}]}
{"smiles": "CCCn1cc(-n2c(Cl)c(Sc3cccc(C(=O)O)c3F)c3ccc(Cl)c(F)c32)cn1", "note": "[Form A]", "values": [{"measurement": "degradation and/or form change", "setting": "[3]", "result": "no significant degradation and/or form change"}, {"measurement": "Stability results (Open for 1 week) Appearance", "setting": "[3]; 25° C./60% RH", "result": "No"}, {"measurement": "Stability results (Open for 1 week) Purity (area %)", "setting": "[3]; 25° C./60% RH", "result": 99.82, "unit": "area %"}, {"measurement": "Stability results (Open for 1 week) Form change", "setting": "[3]; 25° C./60% RH", "result": "No"}, {"measurement": "Stability results (Open for 1 week) Appearance", "setting": "[3]; 40° C./75% RH", "result": "No"}, {"measurement": "Stability results (Open for 1 week) Purity (area %)", "setting": "[3]; 40° C./75% RH", "result": 99.75, "unit": "area %"}, {"measurement": "Stability results (Open for 1 week) Form change", "setting": "[3]; 40° C./75% RH", "result": "No"}, {"measurement": "Initial Purity (area %)", "setting": "[3]", "result": 99.78, "unit": "area %"}]}
